A flash point compilation (Sun et al. 2020)

In order of falling flash point:
1. Nc1ccc2c(c1)C(=O)c1ccccc1C2=O [2-aminoanthracene-9,10-dione]  283.00 °C
2. c1ccc2sc(SSc3nc4ccccc4s3)nc2c1 [2-(1,3-benzothiazol-2-yldisulfanyl)-1,3-benzothiazole]  270.00 °C
3. O=C(OCCOCCOC(=O)c1ccccc1)c1ccccc1 [2-(2-benzoyloxyethoxy)ethyl benzoate]  232.00 °C
4. Nc1ccc([N+](=O)[O-])cc1[N+](=O)[O-] [2,4-dinitroaniline]  224.00 °C
5. CCCCC(CC)COP(=O)(Oc1ccccc1)Oc1ccccc1 (stereo not given) [2-ethylhexyl diphenyl phosphate]  224.00 °C
6. Nc1ccc([N+](=O)[O-])cc1Cl [2-chloro-4-nitroaniline]  205.00 °C
7. CCCCOC(=O)c1ccccc1C(=O)OCc1ccccc1 [2-O-benzyl 1-O-butyl benzene-1,2-dicarboxylate]  199.00 °C
8. NC(=O)OCCO [2-hydroxyethyl carbamate]  188.00 °C
9. OCCN(CCO)CCO [2-[bis(2-hydroxyethyl)amino]ethanol]  185.00 °C
10. CC(=O)OCCOCCOCCOC(C)=O [2-[2-(2-acetyloxyethoxy)ethoxy]ethyl acetate]  174.00 °C
11. CCCCC(CC)COC(=O)COc1ccc(Cl)cc1Cl (stereo not given) [2-ethylhexyl 2-(2,4-dichlorophenoxy)acetate]  171.00 °C
12. Nc1cc(Cl)ccc1O [2-amino-4-chlorophenol]  170.00 °C
13. NC(=O)CCl [2-chloroacetamide]  170.00 °C
14. COC(O)COCCOCCOCCO (stereo not given) [2-[2-[2-(2-hydroxyethoxy)ethoxy]ethoxy]-1-methoxyethanol]  161.00 °C
15. O=C1OC(=O)c2ccccc21 [2-benzofuran-1,3-dione]  152.00 °C
16. CCCCCCCCCCCCc1ccccc1S(=O)(=O)O [2-dodecylbenzenesulfonic acid]  149.00 °C
17. CCCCOCCOCCOCCO [2-[2-(2-butoxyethoxy)ethoxy]ethanol]  143.00 °C
18. CCc1cccc(CC)c1N(COC)C(=O)CCl [2-chloro-N-(2,6-diethylphenyl)-N-(methoxymethyl)acetamide]  137.00 °C
19. Cc1ccc(N=C=O)cc1N=C=O [2,4-diisocyanato-1-methylbenzene]  132.00 °C
20. CCCCC(CC)CNCC(CC)CCCC (stereo not given) [2-ethyl-N-(2-ethylhexyl)hexan-1-amine]  132.00 °C
21. CC(C)(C)c1cc(C(C)(C)C)c(O)c(C(C)(C)C)c1 [2,4,6-tritert-butylphenol]  130.00 °C
22. CCOP(=O)(SC(C)CC)SC(C)CC (stereo not given) [2-[butan-2-ylsulfanyl(ethoxy)phosphoryl]sulfanylbutane]  129.00 °C
23. Cc1cc(C(C)(C)C)c(O)c(C(C)(C)C)c1 [2,6-ditert-butyl-4-methylphenol]  127.00 °C
24. NCCOCCO [2-(2-aminoethoxy)ethanol]  127.00 °C
25. CCCC(O)C(CC)CO (stereo not given) [2-ethylhexane-1,3-diol]  127.00 °C
26. CCCCC(CC)C(=O)O (stereo not given) [2-ethylhexanoic acid]  127.00 °C
27. Clc1ccc2ccccc2c1 [2-chloronaphthalene]  125.00 °C
28. COCC(C)OCC(C)OC(C)CO (stereo not given) [2-[1-(1-methoxypropan-2-yloxy)propan-2-yloxy]propan-1-ol]  121.00 °C
29. CC(COc1ccc(Oc2ccccc2)cc1)Oc1ccccn1 (stereo not given) [2-[1-(4-phenoxyphenoxy)propan-2-yloxy]pyridine]  119.00 °C
30. CCCCOCCOCCOC(C)=O [2-(2-butoxyethoxy)ethyl acetate]  116.00 °C
31. Nc1ccc(Cl)cc1Cl [2,4-dichloroaniline]  115.00 °C
32. Oc1ccc(Cl)cc1Cl [2,4-dichlorophenol]  114.00 °C
33. O=S1(=O)CC=CC1 [2,5-dihydrothiophene 1,1-dioxide]  113.00 °C
34. CCC(C)c1ccccc1O (stereo not given) [2-butan-2-ylphenol]  112.00 °C
35. COC(C)COC(C)COC(C)CO (stereo not given) [2-[2-(2-methoxypropoxy)propoxy]propan-1-ol]  111.00 °C
36. Cc1ccc([N+](=O)[O-])c(C)c1 [2,4-dimethyl-1-nitrobenzene]  107.00 °C
37. NCCNCCO [2-(2-aminoethylamino)ethanol]  102.00 °C
38. CC(C)(C)c1ccc(OCC2CO2)cc1 (stereo not given) [2-[(4-tert-butylphenoxy)methyl]oxirane]  102.00 °C
39. CCc1cccc(C)c1N [2-ethyl-6-methylaniline]  102.00 °C
40. CC(=O)OCCO [2-hydroxyethyl acetate]  102.00 °C
41. C=C(C)C(=O)OCCOC(=O)C(=C)C [2-(2-methylprop-2-enoyloxy)ethyl 2-methylprop-2-enoate]  101.00 °C
42. Clc1cccc(C(Cl)(Cl)Cl)n1 [2-chloro-6-(trichloromethyl)pyridine]  100.00 °C
43. O=C(Cl)CCl [2-chloroacetyl chloride]  100.00 °C
44. CCN(CCO)CCO [2-[ethyl(2-hydroxyethyl)amino]ethanol]  98.00 °C
45. CCCCC(CC)COCC1CO1 (stereo not given) [2-(2-ethylhexoxymethyl)oxirane]  97.00 °C
46. CCOCCOCCO [2-(2-ethoxyethoxy)ethanol]  96.00 °C
47. Cc1ccc(C(C)(C)O)cc1 [2-(4-methylphenyl)propan-2-ol]  96.00 °C
48. CC(=O)OCCOC(C)=O [2-acetyloxyethyl acetate]  96.00 °C
49. Cc1ccc(C)c(N)c1 [2,5-dimethylaniline]  94.00 °C
50. COCCOCCO [2-(2-methoxyethoxy)ethanol]  93.00 °C
51. Cc1cccc(C)c1N [2,6-dimethylaniline]  91.00 °C
52. CCCCCCOCCO [2-hexoxyethanol]  91.00 °C
53. O=CCCl [2-chloroacetaldehyde]  88.00 °C
54. O=Cc1ccccc1Cl [2-chlorobenzaldehyde]  88.00 °C
55. COC(C)COC(C)COC(C)=O (stereo not given) [2-(2-methoxypropoxy)propyl acetate]  86.00 °C
56. CC(C)(C)OOC(C)(C)CCC(C)(C)OOC(C)(C)C [2,5-bis(tert-butylperoxy)-2,5-dimethylhexane]  85.00 °C
57. CC(C)=CC(=O)C=C(C)C [2,6-dimethylhepta-2,5-dien-4-one]  85.00 °C
58. C=CC(=O)OCC(CC)CCCC (stereo not given) [2-ethylhexyl prop-2-enoate]  82.00 °C
59. CCCCC(CC)CO (stereo not given) [2-ethylhexan-1-ol]  81.00 °C
60. CCCCOCCOCCO [2-(2-butoxyethoxy)ethanol]  78.00 °C
61. C=CC(=O)OCCOCCOC(=O)C=C [2-(2-prop-2-enoyloxyethoxy)ethyl prop-2-enoate]  78.00 °C
62. CC(C)CC(O)CC(C)C [2,6-dimethylheptan-4-ol]  74.00 °C
63. Cc1cccc(C)c1O [2,6-dimethylphenol]  74.00 °C
64. COC(C)COC(C)CO (stereo not given) [2-(2-methoxypropoxy)propan-1-ol]  74.00 °C
65. CC(C)(O)C#N [2-hydroxy-2-methylpropanenitrile]  74.00 °C
66. CC(C)(N)CO [2-amino-2-methylpropan-1-ol]  67.00 °C
67. Oc1ccccc1Cl [2-chlorophenol]  64.00 °C
68. Nc1ccc(F)cc1F [2,4-difluoroaniline]  63.00 °C
69. CC(N)CO (stereo not given) [2-aminopropan-1-ol]  63.00 °C
70. CCCCOCCO [2-butoxyethanol]  61.00 °C
71. OCCCl [2-chloroethanol]  60.00 °C
72. CCCCC(CC)CN (stereo not given) [2-ethylhexan-1-amine]  60.00 °C
73. Nc1ccccc1F [2-fluoroaniline]  60.00 °C
74. ClC=Cc1ccccc1 [2-chloroethenylbenzene]  58.00 °C
75. C=CCOCC1CO1 (stereo not given) [2-(prop-2-enoxymethyl)oxirane]  57.00 °C
76. CCOCCOC(C)=O [2-ethoxyethyl acetate]  57.00 °C
77. BrCC1CO1 (stereo not given) [2-(bromomethyl)oxirane]  56.00 °C
78. CCC(CC)COC(C)=O [2-ethylbutyl acetate]  54.00 °C
79. CC(Cl)CO (stereo not given) [2-chloropropan-1-ol]  52.00 °C
80. CCCCC(C=O)CC (stereo not given) [2-ethylhexanal]  52.00 °C
81. N#CCCl [2-chloroacetonitrile]  48.00 °C
82. CC1CNCC(C)O1 (stereo not given) [2,6-dimethylmorpholine]  44.00 °C
83. Oc1ccccc1Br [2-bromophenol]  42.00 °C
84. C=Cc1ccccn1 [2-ethenylpyridine]  42.00 °C
85. OCCBr [2-bromoethanol]  41.00 °C
86. CCOC1CCC=CO1 (stereo not given) [2-ethoxy-3,4-dihydro-2H-pyran]  37.00 °C
87. CC1OC(C)OC(C)O1 (stereo not given) [2,4,6-trimethyl-1,3,5-trioxane]  36.00 °C
88. ClCC1CO1 (stereo not given) [2-(chloromethyl)oxirane]  34.00 °C
89. CC1=CCC2CC1C2(C)C (stereo not given) [2,6,6-trimethylbicyclo[3.1.1]hept-2-ene]  33.00 °C
90. C=CC(=O)OCCN(C)C [2-(dimethylamino)ethyl prop-2-enoate]  29.00 °C
91. CC1COC(C)CO1 (stereo not given) [2,5-dimethyl-1,4-dioxane]  24.00 °C
92. CCC(C=O)CC [2-ethylbutanal]  21.00 °C
93. FCC1CO1 (stereo not given) [2-(fluoromethyl)oxirane]  4.00 °C
94. CCC1CO1 (stereo not given) [2-ethyloxirane]  -12.00 °C
95. C=CC(=C)Cl [2-chlorobuta-1,3-diene]  -20.00 °C
